Assay results from patent EP0309566B1, “STLV-III-RELATED POLYPEPTIDES, DIAGNOSTIC SYSTEMS AND ASSAY METHODS” (JOHNSON AND JOHNSON, priority 1987, dated 1994).

Assays:
[1] = system: antibodies against HIV-1; assay: Specificity ELISA (Example 12, Figure 3), HIV-1 antibody positive sera; format: binding, human; details: 20 sera with antibodies against HIV-1; positive O.D. above 0.150
From the text: In the Figures forming a portion of the disclosure of this invention: • Figure 1 illustrates a portion of the STLV-IIImac TMP amino acid residue sequence. The sequence is shown from left to right and in the direction of amino-terminus to carboxy-terminus in a single-letter code. The residue positions have been numbered as illustrated from 1-33. • Figure 2 illustrates, in a manner similar to Figure 1, a portion of the amino acid residue sequence of the HIV-1 TMP and represent gp41 amino acid residues […] as described in Ratner et al., Nature, 313:277-283 (1985). However, for ease of discussion, those residue positions have been renumbered as illustrated from 1-32. • Figure 3 contains 2 panels illustrating antibody determinations using a diagnostic system of this invention to assay (a) 20 sera from individuals in Guinea-Bissau previously determined to have antibodies against HIV-related viruses (West Africans), (b) 20 sera from HIV-1-infected individuals and (c) 20 sera from blood donors without antibodies to HIV-1 or HIV-2. Sera were considered positive (closed symbols) when they produced optical density (O.D.) values above 0.150 (the mean O.D. of negative samples plus 6 standard deviations). Negative sera are represented by open symbols. […]

[2] = system: antibodies against HIV-2; assay: ELISA with STLV-III polypeptides p80 and p81, alone and in combination; format: binding, human; details: two sera containing high titers of antibodies against HIV-2, diluted 1:10; 490nm
Experimental: Preliminary studies using two sera containing high titers of antibodies against HIV-2 were performed by ELISA using each of p80 and p81 alone and in combination. One hundred microliters (ul) of 0.01M NaHCO₃, pH 9.6, containing 1 microgram (ug) of either p80 or p81 or a combination (admixture) of 1 ug of p80 and 1 ug of p81 were admixed into the wells of Immunolon II microtiter plates (Dynatech, Alexandria, VA). The plates were then maintained for about 16 hours at 4 degrees C to permit the polypeptides to adsorb onto (coat) the walls of the wells. After removing the polypeptide coating solution by shaking, 300 ul of PBS containing 1% bovine serum albumin (BSA), 5mM benzamidine, 10 kilounits Aprotinin, 10ug/ml Trypsin Inhibitor, 10mM EACA, 0.5mM PMSF, 2mM EDTA and 10% glycerol were admixed into each well to block excess protein binding sites. […]
Two hundred ul of OPD substrate were then admixed into each well to form a developing-reaction admixture. After maintaining the developing-reaction admixture for 30 minutes at about 20 degrees C, 50 ul of 4N H₂SO₄ were admixed into each well to stop the developing-reaction, and the resulting solutions were assayed for absorbance at 490nm using a microtiter plate reader.

[3] = system: 24 sera; assay: Comparison of peptide p80 based and peptide p81 based ELISA, 24 sera; format: binding; details: for Ratio p80:p81: absorbance value ratio
From the text: The absorbance values obtained for each of 24 sera in a peptide p80 based ELISA were divided by those obtained in a peptide p81 based ELISA. The resulting absorbance value ratios are shown in ranked order in Table 14.

What does the source list for AIEKYLEDQAQLNAWCAFRQVC [p80]?
immunoreaction with sera [1]: with one exception, produced no substantial immunoreaction; absorbance values [2]: greater than 1.1; absorbance value ([3]; Serum No. 3541): 0.181; Ratio p80:p81 ([3]; Serum No. 3541): 7.240; absorbance value ([3]; Serum No. 3616): 0.686; Ratio p80:p81 ([3]; Serum No. 3616): 14.600; absorbance value ([3]; Serum No. 3743): 0.257; Ratio p80:p81 ([3]; Serum No. 3743): 6.425; absorbance value ([3]; Serum No. 3923): 0.180; Ratio p80:p81 ([3]; Serum No. 3923): 2.687; absorbance value ([3]; Serum No. 3942): 0.588; Ratio p80:p81 ([3]; Serum No. 3942): 11.530; absorbance value ([3]; Serum No. 5160): 0.251; Ratio p80:p81 ([3]; Serum No. 5160): 1.064; absorbance value ([3]; Serum No. 5182): 0.162; Ratio p80:p81 ([3]; Serum No. 5182): 1.588; absorbance value ([3]; Serum No. 5727): 0.504; Ratio p80:p81 ([3]; Serum No. 5727): 0.895; absorbance value ([3]; Serum No. 5740): 2.000; Ratio p80:p81 ([3]; Serum No. 5740): 46.510; absorbance value ([3]; Serum No. 6598): 0.072; Ratio p80:p81 ([3]; Serum No. 6598): 0.351; absorbance value ([3]; Serum No. 6599): 0.206; Ratio p80:p81 ([3]; Serum No. 6599): 0.888; absorbance value ([3]; Serum No. 6600): 0.359; Ratio p80:p81 ([3]; Serum No. 6600): 1.173; absorbance value ([3]; Serum No. 6601): 0.353; Ratio p80:p81 ([3]; Serum No. 6601): 2.558; absorbance value ([3]; Serum No. 6602): 0.516; Ratio p80:p81 ([3]; Serum No. 6602): 516.000; absorbance value ([3]; Serum No. 6603): 1.152; Ratio p80:p81 ([3]; Serum No. 6603): 2.736; absorbance value ([3]; Serum No. 6604): 1.808; Ratio p80:p81 ([3]; Serum No. 6604): 4.520; absorbance value ([3]; Serum No. 6631): 0.153; Ratio p80:p81 ([3]; Serum No. 6631): 0.537; absorbance value ([3]; Serum No. 6650): 0.700; Ratio p80:p81 ([3]; Serum No. 6650): 20.590; absorbance value ([3]; Serum No. 6661): 0.647; Ratio p80:p81 ([3]; Serum No. 6661): 4.044; absorbance value ([3]; Serum No. 6665): 0.254; Ratio p80:p81 ([3]; Serum No. 6665): 4.792; absorbance value ([3]; Serum No. 6674): 2.000; Ratio p80:p81 ([3]; Serum No. 6674): 7.752; absorbance value ([3]; Serum No. 6683): 0.387; Ratio p80:p81 ([3]; Serum No. 6683): 0.791; absorbance value ([3]; Serum No. 6698): 2.000; Ratio p80:p81 ([3]; Serum No. 6698): 90.910; absorbance value ([3]; Serum No. 6877): 0.248; Ratio p80:p81 ([3]; Serum No. 6877): 31.000
